Common to all, as to type: cell-based
In series [1] the test system is MCF-7 human breast cancer cell lines. Kind of series: MTT proliferation (cytotoxicity) assay on MCF-7 cells. As to conditions: for cytotoxicity against MCF-7 (in words): 10-100 µM, 24-72 h; for cytotoxicity against MCF-7 (in words) / IC50: MTT; for SI (selectivity index) MCF-7: IC50 normal cells (MCF-10A) divided by IC50 MCF-7; for IC50: Homo sapiens, MCF7. From the text: (§1) MCF-7 and MDA-MB-231 human breast cancer cell lines, as well as MCF-10A human normal breast cell lines, were used in this study. These cells were acquired from the American Type Culture Collection (Manassas, VA, USA). MCF-7 and MDAMB-231 cells were regularly cultured in Dulbecco’s Modified Eagle’s Medium (DMEM; Gibco, Waltham, MA, USA), and supplemented with 10% (v/v) foetal bovine serum (FBS; Gibco, Waltham, MA, USA) and 100 U/mL penicillin-streptomycin (PenStrep; Gibco, Waltham, MA, USA). MCF-10A cells were routinely cultured in DMEM/F12 (Gibco, Waltham, MA, USA) medium supplemented with 5% horse serum (Sigma-Aldrich, Burlington, MA, USA), 10 μg/mL of insulin (Sigma-Aldrich, Burlington, MA, USA), 20 ng/mL of human epidermal growth factor (hEGF; ThermoFisher, Waltham, MA, USA), 0.5 μg/mL of hydrocortisone (Sigma-Aldrich, Burlington, MA, USA) and 1 U/mL PenStrep. All cell lines were maintained in a humidified atmosphere with 5% CO2 at 37 °C.
(§2) The effects of the N-(2-cinnamylphenyl)amide products (i.e., isolated pure isomers) on MCF-7, MDA-MB-231 and MCF-10A were determined using a 3-(4,5-dimethylthiazol-2-yl)-2,5-diphenyltetrazolium bromide (MTT) proliferation assay. The cell lines were seeded in 96-well plates at a density of 1 × 10^4 cells/well and allowed to grow overnight for cell attachment. The cell lines were then treated with fresh assay medium, supplemented with increasing concentrations of tested compounds (10–100 µM) and incubated for 24–72 h at 37 °C. For this assay, the blank and negative controls used were the culture medium alone (without cells) and cells with culture medium only (untreated cells), respectively. […] At each incubation period (24, 48 and 72 h), 10 μL of MTT solution (5 mg/mL) was added to each well, and cells were further incubated for 4 h at 37 °C in 5% CO2. The solution mixture in each well was replaced with 100 μL of dimethyl sulfoxide (DMSO) to solubilise the MTT crystalline products. The optical density (O.D.) of each well was measured using a microplate reader (PowerWave-XS; Bio-Tek Instruments, Winooski, Vermont, USA) at 570 nm. The experiments were conducted in triplicate for each cell line.
(§3) The selectivity index (SI) was used to indicate the cytotoxic selectivity of the samples against cancer cells and normal cells. It was calculated from the IC50 of the samples in normal cells versus cancer cells. […] All data were analysed and presented as means standard deviation (±SD). Comparisons between each concentration of 18 samples were evaluated using Student’s t-test, where p < 0.05, p < 0.01 or p < 0.001 were considered as statistically significant relative to the untreated control cells.

For series [2], the system named is MDA-MB-231 human breast cancer cell lines. Kind of series: MTT proliferation (cytotoxicity) assay on MDA-MB-231 cells. As to conditions: for cytotoxicity against MDA-MB-231 (in words): 10-100 µM, 24-72 h; for cytotoxicity against MDA-MB-231 (in words) / IC50: MTT; for SI (selectivity index) MDA-MB-231: IC50 normal cells (MCF-10A) divided by IC50 MDA-MB-231; for IC50: Homo sapiens, MDA-MB-231.
Text: as §1, §2, §3

For series [3], the system named is MCF-10A human normal breast cell lines. Kind of series: MTT proliferation (cytotoxicity) assay on MCF-10A normal cells.
Text: as §1, §2, §3

Structures are written as SMILES. “Also recorded” adds a separate entry of the source.

For `CCCCC(=O)Nc1ccccc1/C=C/Cc1ccc(OC)cc1` [Compound 6d, (E)-N-(2-(3-(4-Methoxyphenyl)prop-1-en-1-yl)phenyl)pentanamide], the “cytotoxicity against MCF-7 (in words)” value in series [1] is recorded as “low growth inhibition”. The “SI (selectivity index) MCF-7” value in series [1] (24 h) was > 1.06; in series [1] (48 h) it was 1.01; in series [1] (72 h) it was 1.41. In addition, the IC50 is 94 ± 1.26 µM in series [1] (24 h incubation); 93.3 ± 2.15 µM in series [1] (48 h incubation); 65.8 ± 7.33 µM in series [1] (72 h incubation); > 100 µM in series [2] (24 h incubation); > 100 µM in series [2] (48 h incubation); > 100 µM in series [2] (72 h incubation). Besides, the results for the IC50 in series [3] (24 h incubation), in series [3] (48 h incubation) and in series [3] (72 h incubation) were > 100 µM, 94.4 ± 9.71 µM and 92.9 ± 8.71 µM, respectively. In addition, the “cytotoxicity against MDA-MB-231 (in words)” value in series [2] was “inactive; also recorded: low growth inhibition”. Moreover, the results for the “SI (selectivity index) MDA-MB-231” value in series [2] (48 h) and in series [2] (72 h) were < 0.94 and < 0.93, respectively.
Regarding `CCCCCC(=O)Nc1ccccc1/C=C/Cc1ccc(OC)cc1` [Compound 6e, (E)-N-(2-(3-(4-Methoxyphenyl)prop-1-en-1-yl)phenyl)hexanamide], the “cytotoxicity against MCF-7 (in words)” value in series [1] is given as “low growth inhibition”. Further, the “SI (selectivity index) MCF-7” value in series [1] (24 h) is listed as < 0.81; in series [1] (48 h), < 0.90; in series [1] (72 h), < 0.99. Moreover, the IC50 in series [1] (24 h incubation), in series [1] (48 h incubation), in series [1] (72 h incubation), in series [2] (24 h incubation), in series [2] (48 h incubation) and in series [2] (72 h incubation) was > 100 µM throughout. For the same molecule, the IC50 in series [3] (24 h incubation) worked out at 80.9 ± 7.58 µM; in series [3] (48 h incubation), 90.1 ± 8.8 µM; in series [3] (72 h incubation), 98.5 ± 2.6 µM. For the same molecule, in series [2], the “cytotoxicity against MDA-MB-231 (in words)” value is “low growth inhibition”. Besides, the results for the “SI (selectivity index) MDA-MB-231” value in series [2] (24 h), in series [2] (48 h) and in series [2] (72 h) were < 0.81, < 0.90 and < 0.99, respectively.
With `COc1ccc(C/C=C/c2ccccc2NC(=O)c2ccccc2C)cc1` [Compound 6i, (E)-N-(2-(3-(4-Methoxyphenyl)prop-1-en-1-yl)phenyl)-2-methylbenzamide], in series [1] (72 h), the “SI (selectivity index) MCF-7” value is recorded as > 1.09. For the same molecule, the IC50 is > 100 µM in series [1] (24 h incubation); > 100 µM in series [1] (48 h incubation); 91.8 ± 7.95 µM in series [1] (72 h incubation); > 100 µM in series [2] (24 h incubation); > 100 µM in series [2] (48 h incubation); 73.8 ± 6.92 µM in series [2] (72 h incubation). Also, the IC50 in series [3] (24 h incubation), in series [3] (48 h incubation) and in series [3] (72 h incubation) was > 100 µM in each case. Also, the “SI (selectivity index) MDA-MB-231” value in series [2] (72 h) is on record as > 1.36.
As to `CCCCC(=O)Nc1ccccc1C/C=C/c1ccc(OC)cc1` [Compound 7d, (E)-N-(2-(3-(4-Methoxyphenyl)allyl)phenyl)pentanamide], in series [1], the “cytotoxicity against MCF-7 (in words)” value is “low growth inhibition”. The “SI (selectivity index) MCF-7” value in series [1] (24 h) was > 1.70; in series [1] (48 h) it was 1.54; in series [1] (72 h), 1.49. In addition, the IC50 was 58.9 ± 1.81 µM in series [1] (24 h incubation); 48.7 ± 3.46 µM in series [1] (48 h incubation); 47.9 ± 2.96 µM in series [1] (72 h incubation); > 100 µM in series [2] (24 h incubation); > 100 µM in series [2] (48 h incubation); > 100 µM in series [2] (72 h incubation). The IC50 in series [3] (24 h incubation) was > 100 µM; in series [3] (48 h incubation) it was 75 ± 8.58 µM; in series [3] (72 h incubation) it was 71.2 ± 9.25 µM. The SI value in series [1] (abstract, time not stated, considered general toxicity) is reported as < 2. In addition, in series [2], the “cytotoxicity against MDA-MB-231 (in words)” value was “inactive; also recorded: low growth inhibition”. Besides, the “SI (selectivity index) MDA-MB-231” value in series [2] (48 h) is < 0.75; in series [2] (72 h), < 0.71.
Consider `CCCCCC(=O)Nc1ccccc1C/C=C/c1ccc(OC)cc1` [Compound 7e, (E)-N-(2-(3-(4-Methoxyphenyl)allyl)phenyl)hexanamide], for which the “cytotoxicity against MCF-7 (in words)” value in series [1] was “low growth inhibition”. Besides, the “SI (selectivity index) MCF-7” value is < 0.70 in series [1] (48 h) and 0.78 in series [1] (72 h). The IC50 in series [1] (24 h incubation) is > 100 µM; in series [1] (48 h incubation), > 100 µM; in series [1] (72 h incubation), 88.5 ± 2.37 µM; in series [2] (24 h incubation), > 100 µM; in series [2] (48 h incubation), > 100 µM; in series [2] (72 h incubation), > 100 µM. Also, the IC50 in series [3] (24 h incubation) was > 100 µM; in series [3] (48 h incubation) it was 70.3 ± 1.88 µM; in series [3] (72 h incubation), 69.18 ± 0.01 µM. In addition, in series [2], the “cytotoxicity against MDA-MB-231 (in words)” value was “inactive; also recorded: low growth inhibition”. Besides, the “SI (selectivity index) MDA-MB-231” value was < 0.70 in series [2] (48 h) and < 0.69 in series [2] (72 h).
Turning to `COc1ccc(/C=C/Cc2ccccc2NC(=O)c2ccccc2C)cc1` [Compound 7i, (E)-N-(2-(3-(4-Methoxyphenyl)allyl)phenyl)-2-methylbenzamide], the “cytotoxicity against MCF-7 (in words)” value in series [1] is “low growth inhibition”. Besides, the “cytotoxicity against MDA-MB-231 (in words)” value in series [2] is on record as “low growth inhibition”.

In general, IC50 refers to the concentration that inhibits the measured activity by half. Low readings indicate greater potency in that assay, high ones weaker potency in that assay.

The values above are taken from paper PMC9457622, “Synthesis of Bio-Inspired 1,3-Diarylpropene Derivatives via Heck Cross-Coupling and Cytotoxic Evaluation on Breast Cancer Cells” (Molecules, 2022).
